Experimental data: PMC6035881 (Antiviral Research, 2018)
“And” between values parts separate entries of the source, which are not always exact repeats. Equal entries are not always repeated.

Columns and labels:
RVFV (strain ZH501) [1] = system: RVFV (strain ZH501); set-up: species or system Syrian golden hamsters; details: hamster, in vivo
RVFV (strain ZH501) [2] = system: RVFV (strain ZH501); set-up: species or system Syrian golden hamsters; details: hamster, in vivo; remark: listed apart in the source
RVFV (strain ZH501) [3] = system: RVFV (strain ZH501); set-up: species or system Syrian golden hamsters; details: hamster, in vivo, ip
RVFV (MP-12 strain) [4] = system: RVFV (MP-12 strain)
RVFV (MP-12 strain) [5] = system: RVFV (MP-12 strain); remark: listed apart in the source
RVFV [6] = details: cited from earlier work
[7] = system: more than 20 different viruses across eight different virus families; details: read-out: in vitro antiviral potency EC50; cited from earlier work
RVFV [8] = details: in vivo; cited from earlier work
in vitro = details: African green monkey
[9] = hamster, in vivo, ip; cited from earlier work
RVFV (MP-12 strain) [10] = assay: microbe, parasite or virus in culture; details: Rift Valley fever virus, Vero 76, 120 h, read-out: EC50 (CPE reduction assay)
RVFV (MP-12 strain) [11] = assay: microbe, parasite or virus in culture; details: Rift Valley fever virus, Vero 76, read-out: EC90 (VYR)
RVFV [12] = details: hamster, in vivo; cited from earlier work

Nc1ncnc2c([C@@H]3N[C@H](CO)[C@@H](O)[C@H]3O)c[nH]c12 [Galidesivir]
RVFV in serum, spleen or brain on day 2 p.i. (RVFV (strain ZH501) [1]): undetectable | animals with detectable viral load in the liver on day 2 p.i. (RVFV (strain ZH501) [1]): only a single animal | animals surviving the lethal RVFV challenge (RVFV (strain ZH501) [2]): 70% | protection from mortality (RVFV (strain ZH501) [2]): up to 70% | levels of virus across all tissues and serum, day 2 p.i. (RVFV (strain ZH501) [3]): undetectable | SI (CC50/EC50) (RVFV (MP-12 strain) [4]): 5.2 | SI (CC50/EC90) (RVFV (MP-12 strain) [5]): 7.6 | EC50 (RVFV [6]): 41.6 µM | EC90 (RVFV [6]): 98 µM | EC50 [7]: < 50 µM | protection in mouse model of RVFV infection (RVFV [8]): partial protection | CC50 (in vitro): 280 µg/mL and 106 µM | maximum tolerated dose [9]: 200 mg/kg/day | EC50 (RVFV (MP-12 strain) [10]): 54 µg/mL and 20.4 µM | EC90 (RVFV (MP-12 strain) [11]): 37 µg/mL and 13.9 µM

NC(=O)c1ncn([C@@H]2O[C@H](CO)[C@@H](O)[C@H]2O)n1 [Ribavirin, reference compound]
virus in day 2 serum and tissue samples (RVFV (strain ZH501) [1]): devoid of virus | survival (RVFV (strain ZH501) [2]): 30%

NC(=O)c1nc(F)c[nH]c1=O [favipiravir]
hamsters protected from lethal RVFV challenge (RVFV [12]): 70–80%
